Assay results reported in US20210100246A1, “PYRIDYL-FORMAMIDINES HAVING A FUNGICIDAL ACTIVITY, THEIR AGRONOMIC COMPOSITIONS AND USE THEREOF” (ISAGRO, S.p.A., priority 2017, published 2021).

Key:
Uromyces Appendiculatus = assay: Preventive fungicidal activity (5 days) against Uromyces Appendiculatus on beans; type: in vivo
Description: Determination of the preventive fungicidal activity (5 days) against Uromyces Appendiculatus on beans.
(§1) Bean plants cv. Borlotto of Vigevano, grown in pots in a conditioned environment, were treated by spraying both sides with the products under examination in a hydroacetonic solution with 20% by volume of acetone (vol./vol.).
After remaining 5 days in a conditioned environment at 23° C. and 70% of relative humidity, the plants were sprayed on the lower side with an aqueous suspension of spores of Uromyces Appendiculatus (200,000 spores/cc); after remaining 24 hours in a humidity-saturated environment, they were re-transferred to the conditioned environment.
After this period, the external symptoms of the pathogen appeared and it was therefore possible to proceed with the visual evaluation of the intensity of the infection.
(§2) The fungicidal activity is expressed as a percentage of the reduction, with respect to non-treated seedlings (comparison), in the area of the leaf affected by the disease (100=full effectiveness; 0=zero effectiveness).

Puccinia Recondita = assay: Preventive fungicidal activity (5 days) against Puccinia Recondita on wheat; type: in vivo; settings: for Activity P5 NT (reduction of leaf area affected, parts developed during the test) / Activity P5 T (reduction of leaf area affected, parts treated directly) / effectiveness in containing the disease (in words): wheat; for Activity P5 NT (reduction of leaf area affected, parts developed during the test): non-treated parts (NT); for effectiveness in containing the disease (in words): summary of Table 4
Description: Determination of the preventive fungicidal activity (5 days) against Puccinia Recondita on wheat.
(§3) Leaves of wheat plants of the Salgemma variety, grown in pots in a conditioned environment at 20° C. and 70% of Relative Humidity (RH) were treated by spraying both sides of the leaves with the compound under examination (see Table 4 hereunder) dispersed in a hydroacetonic solution at 20% by volume of acetone.
After remaining 5 days in a conditioned environment, the plants were sprayed on both sides of the leaves with an aqueous suspension of conidia of Puccinia Recondita (2 mg of inoculum per 1 ml of solution for infection).
After spraying, the plants were kept in a humidity-saturated environment at a temperature ranging from 18 to 24° C. for the incubation period of the fungus (1 day).
At the end of this period, the plants were put in a greenhouse with a relative humidity (RH) of 70% and at a temperature of 18-24° C. for 14 days.
At the end of this period, the external symptoms of the pathogen appeared and it was therefore possible to proceed with the visual evaluation of the intensity of the infection, both on the parts treated directly with the products (T) and on the parts developed during the implementation of the test (NT).
as §2

cucumber seedlings = assay: Phytotoxicity (percentage of leaf necrosis) on cucumber seedlings; type: in vivo; settings: scale 0-100
Description: (§4) Cucumber plants cv. Lungo of China, grown in pots in a conditioned environment were treated by spraying both sides with the products under examination in a hydroacetonic solution with 20% by volume of acetone (vol./vol.).
At the same time, an evaluation of the phytotoxicity was effected (percentage of leaf necrosis) induced on the cucumber seedlings by the application of the products: in this case the evaluation scale ranges from 0 (completely healthy plant) to 100 (completely necrotic plant).

Sphaerotheca Fuliginea = assay: Preventive fungicidal activity (7 days) against Sphaerotheca Fuliginea on cucumbers; type: in vivo
Description: Determination of the preventive fungicidal activity (7 days) against Sphaerotheca Fuliginea on cucumbers.
as §4
7 days after the treatment, the plants were sprayed on the upper side with an aqueous suspension of spores of Sphaerotheca Fuliginea (200,000 spores/cc); they were then re-transferred to the conditioned environment.
At the end of the period of incubation (8 days), the evaluation of the intensity of the infection was finally effected.
as §2

wheat seedlings = assay: Phytotoxicity (percentage of leaf necrosis) on wheat seedlings; type: in vivo; settings: for Phytotoxicity % N.F. (leaf necrosis): wheat seedlings, scale 0-100
Description: as §3
At the same time, an evaluation of the phytotoxicity was effected (percentage of leaf necrosis) induced on the wheat seedlings by the application of the products: in this case the evaluation scale ranges from 0 (completely healthy plant) to 100 (completely necrotic plant).

bean seedlings = assay: Phytotoxicity (percentage of leaf necrosis) on bean seedlings; type: in vivo; settings: scale 0-100
Description: as §1
At the same time, an evaluation of the phytotoxicity was effected (percentage of leaf necrosis) induced on the bean seedlings by the application of the products: in this case the evaluation scale ranges from 0 (completely healthy plant) to 100 (completely necrotic plant).

[1] = Accelerated stability test of 5% solutions in commercial solvents (54° C., 2 weeks, HPLC); type: physicochemical
Description: Stability tests of the compositions containing compounds having formula (I) in a solvent
In order to evaluate the chemical stability of the compounds having Formula (I) in a solvent, 5% solutions were prepared, containing 250 mg of compounds Nr. 1, 17, 39 and 40, dissolved in 4.75 g of various commercial solvents used for the preparation of emulsifiable concentrates.
The resulting solutions were put in an oven at 54° C. for 2 weeks (according to Cipac MT 46.1 update 2012) and then analyzed by means of HPLC in order to verify the concentration of the active ingredient contained therein. The percentage of degradation of the compound having Formula (I) was therefore obtained, after the accelerated stability test.

[2] = solvent ADMA 10 (N,N-dimethyldecanamide)
[3] = solvent Alkamuls T/20 (ethoxylated sorbitan monolaurate)
[4] = solvent CME (rapeseed methyl ester)
[5] = solvent FMPC (N-formylmorpholine and propylene carbonate)
[6] = solvent Green 25 (dimethylsulfoxide, acetophenone, 2-ethylhexyl acetate)
[7] = solvent Purasolv BL (butyl lactate)
[8] = solvent RPDE (dimethyl glutarate, dimethyl succinate, dimethyl adipate)

Compound | Activity P5 (Uromyces Appendiculatus; 30 ppm) [%] | Activity P5 (Uromyces Appendiculatus; 125 ppm) [%] | Activity P5 NT (reduction of leaf area affected, parts developed during the test) (Puccinia Recondita; 125 ppm) [%] | Activity P5 T (reduction of leaf area affected, parts treated directly) (Puccinia Recondita; 125 ppm) [%] | Activity P5 NT (reduction of leaf area affected, parts developed during the test) (Puccinia Recondita; 250 ppm) [%] | Activity P5 T (reduction of leaf area affected, parts treated directly) (Puccinia Recondita; 250 ppm) [%] | effectiveness in containing the disease (in words) (Puccinia Recondita) | Phytotoxicity % N.F. (leaf necrosis) (bean seedlings; 30 ppm) [% N.F.] | Phytotoxicity % N.F. (leaf necrosis) (bean seedlings; 125 ppm) [% N.F.] | Phytotoxicity % N.F. (leaf necrosis) (wheat seedlings; 125 ppm) [% N.F.] | Phytotoxicity % N.F. (leaf necrosis) (wheat seedlings; 250 ppm) [% N.F.] | symptoms of phytotoxicity on the plant (in words) (wheat seedlings; wheat, summary of Table 4) | percentage of degradation [1, 2] [%] | percentage of degradation [1, 3] [%] | percentage of degradation [1, 4] [%] | percentage of degradation [1, 5] [%] | percentage of degradation [1, 6] [%] | percentage of degradation ([1]; solvent Propylene carbonate) [%] | percentage of degradation [1, 7] [%] | percentage of degradation [1, 8] [%] | other results
CCN(C)C=Nc1cc(C)c(SCc2cccc(C(F)(F)F)c2)nc1C [Compound 3, N-ethyl-N-methyl-N′-2,5-dimethyl-6-{[3(trifluoromethyl)benzyl]thio}pyridyl-3-formamidine] | 100 | 100 | 93 | 100 | 98 | 100 | effective in containing the disease | – | – | – | – | – | – | – | – | – | – | – | – | – | Phytotoxicity % N.F. (leaf necrosis) (cucumber seedlings; 30 ppm): 1 % N.F.; Phytotoxicity % N.F. (leaf necrosis) (cucumber seedlings; 125 ppm): 3 % N.F.; Activity P5 (Sphaerotheca Fuliginea; 30 ppm): 98%; Activity P5 (Sphaerotheca Fuliginea; 125 ppm): 100%; symptoms of phytotoxicity on the plant (in words) (wheat seedlings; in vivo): do not show any symptoms of phytotoxicity
CCCCCCSc1nc(C)c(N=CN(C)CC)cc1C [Compound 17] | 100 | 100 | 55 | 95 | 65 | 98 | effective in containing the disease | 0 | 0 | 0 | 0 | do not show any symptoms of phytotoxicity | 1.57 | 74.78 | 16 | 0.79 | 2.96 | 0 | 100 | 1.93 | –
CCN(C)C=Nc1cc(Br)c(SCCC(C)C)nc1C [Compound 5] | – | – | 45 | 85 | 65 | 100 | effective in containing the disease | – | – | 0 | 0 | do not show any symptoms of phytotoxicity | – | – | – | – | – | – | – | – | activity compared with CR1 (in words) (Puccinia Recondita; also at low dosages (125 ppm)): more active
CCN(C)C=Nc1cc(C)c(SCC2CCCCC2)nc1C [Compound 40] | 100 | 100 | 55 | 80 | 70 | 90 | effective in containing the disease | 0 | 0 | 0 | 0 | do not show any symptoms of phytotoxicity | 1.09 | 81.02 | 12.76 | 0 | 2.82 | 0 | 100 | 1.71 | –
N-ethyl-N-methyl-N′-[5-bromo-2-methyl-6-[(4-methylpentyloxy]pyridyl-3-formamidine [CR2, reference compound] | 80 | 90 | – | – | – | – | – | – | – | – | – | – | – | – | – | – | – | – | – | – | Activity P5 (Sphaerotheca Fuliginea; 30 ppm): 75%; Activity P5 (Sphaerotheca Fuliginea; 125 ppm): 85%
CCN(C)C=Nc1cc(Br)c(OCCC(C)C)nc1C [CR1, N-ethyl-N-methyl-N′-[5-bromo-2-methyl-6-(3-methyl-butyloxy)-3-pyridyl]-formamidine, reference compound] | – | – | 20 | 60 | 50 | 80 | – | – | – | 5 | 10 | – | – | – | – | – | – | – | – | – | –
CCN(C)C=Nc1cc(C)c(SCc2c(F)cccc2F)nc1C [Compound 39] | 100 | 100 | 88 | 95 | 97 | 98 | effective in containing the disease | 0 | 0 | 0 | 0 | do not show any symptoms of phytotoxicity | 0 | 79.78 | 17.31 | 1.53 | 1.84 | 0.61 | 100 | 1.13 | –
